Source: patent publication US20080319181A1, “Method of Making an Artificial Nuclease for Anti-viral, Anti-bacterial Applications” (The Government of the United States of America, as …, priority 2004, published 2008)

Tests used:
Format in all cases: biochemical
[1] = Hydrolysis of BNPP by cobalt cyclen complexes (2nd order rate constants); details: 50° C., activation using sodium hydroxide
Method: The hydrolysis of BNPP by both Cocyc and 2 at 50° C., following activation using sodium hydroxide, has been measured (see Table 1). The second-order rate constants at pH 8.2 for both cyclen and 2 were similar at 14 and 12 M^−1 min^−1, respectively. The rate increased at pH 7.3 to a value of 19 M^−1 min^−1 for cyclen as compared to the published value of 2.8 M^−1 min^−1 at pH 7 (Chin, J.; Banaszczyk, M.; Jubian, V.; Zou, X. J. Am. Chem. Soc. 1989, 111, 186-190, the entire contents of which is incorporated herein by reference). The difference between the published value and ours can be attributed to different experimental conditions, such as buffer. pH, and the ratio of catalyst to substrate.
The much lower hydrolysis rate shown at pH 7.3 for Cocycmba is surprising. In order to determine whether the differences observed were mainly due to the carboxylic acid or to the presence of the benzene ring, the kinetics of 3 were measured at pH 7.3 and found to be 14 M^−1 min^−1, which is much closer to the Cocyc rate. Methylation of the benzoic acid takes away both the negative charge and an ability to effectively hydrogen bond. Therefore the results imply that the behavior of 2 can be mostly ascribed to the presence of the additional charge and the potential for hydrogen bonding. For example, the acid dissociation constants of cyclen of 5.6 and 8.0 mean that between pH 8.2 and 7.3 complexes 1 and 2 should convert from predominantly the dihydroxo to the aquo-hydroxo form (see FIG. 2). Since the benzoic acid is in the benzoate form (pKa 4.2), the increasing net positive charge at pH 7.3 of the coordination site may allow the benzoate to approach closer to Co(III) and interfere with the hydrolysis of BNPP.

pBluescript plasmid DNA = experiment: Hydrolysis (nicking) of plasmid DNA, agarose gel; details: pH 7; 5 mM cobalt complex; 0.1M MOPS; 37° C., approximately 16 hours; NIH Image
Method: DNA was digested with cocycmba and cocycmmb at three pH conditions (FIG. 3). Hydrolysis of the phosophodiester bonds of the double stranded (ds) plasmid DNA should lead to a conversion from the covalently closed supercoiled form to the nicked form of the plasmid. […] Plasmid DNA digested with a nicking enzyme (lane 1 FIG. 3) confirms that the slower moving band observed in digests with the cobalt catalysts is the nicked form of the plasmid.
Digests run overnight at 37° C. for approximately 16 hours on a 1.5% agarose gel. Controls with no cobalt catalyst were always run in parallel. b) 5 mM cocycmmb and 1.19 μg (0.168 mM bp) pBluescript plasmid DNA in 0.1M MOPS buffer at pH 7, 8, and 10 run under identical conditions. 1=Nickase+DNA, 2=DNA. 3=Cobalt complex+DNA at pH 7.4=pH 7 control, 5=Cobalt complex+DNA at pH 8, 6=pH 8 control, 7=Cobalt complex+DNA at pH 10, 8=pH 10 control Nickase reactions were performed at pH 7 using a 4 hour, 37° C. incubation of 1.18 μg pBluescript plasmid DNA.

Luciferase control-RNA = experiment: Western blot analysis of effect on protein translation (Rabbit Reticulocyte Lysate)
Method: Luciferase control-RNA (at a final concentration of 0.4 ug/mL) was incubated with increasing concentrations of Cocycmmb for 24 h in 1× HBS buffer (pH 7.4) for 24 h. After the incubation period, the RNA template was translated into luciferase protein using the Rabbit Reticulocyte Lysate translation system (Promega) according to the manufacturer's instructions. After translation, the reaction was analyzed by reducing SDS-PAGE and western blotting to monitor the presence of the 60 kDa luciferase protein product. An aliquot (3 uL) of the translation reaction was run on a 10% NuPAGE Bis-Tris polyacrylamide gel under reducing conditions and transferred to a solid support membrane (PVDF). The membrane was blocked for 1 h in TBS-T (TBS containing 0.05% Tween) and subsequently incubated for 1 h with a 1:2500 dilution of a streptavidin-alkaline phosphatase conjugate. Detection was achieved by exposing the membrane to Western Blue substrate for alkaline phosphatase.
RNA incubations were done as described above except that the Cocycmmb concentration was held constant at 5 mM (and, more recently, down to 0.05 mM) and incubated for varying amounts of time that spanned 24 h. SDS-PAGE and Western blotting were done as described above.

luciferase mRNA = experiment: Hydrolysis of RNA, denaturing agarose gel electrophoresis; details: 1 to 5 mM; 24 h at 25° C. in HBS (FIG. 5)
Method: The direct interaction of Co(III)-cycmmb with luciferase mRNA was analyzed by denaturing agarose gel electrophoresis. mRNA template (2 μg at a final concentration of 0.4 mg/mL) was incubated with varying concentrations (1 to 5 mM) of activated Co(III)-cycmmb for 24 h at 25° C. in 5 μL of HBS. Following the incubation, the reactions were analyzed by electrophoresis on a 2% denaturing agarose gel run for 4 h at 40 V. The gel was stained with RiboGreen (Molecular Probes), visualized by UV illumination, and images were quantified using Scion Image using the control incubation (no Co(III)-cycmmb) as a standard (see FIG. 5).

Compound | 2nd Order Rate Constants, hydrolysis of BNPP ([1]; pH 7.3) | 2nd Order Rate Constants, hydrolysis of BNPP ([1]; pH 8.2) | nicked product (pBluescript plasmid DNA) | inhibition of protein production (Luciferase control-RNA; 0.25 mM, 10 minutes incubation time) | luciferase protein band in the Western blot (Luciferase control-RNA; as a function of Cocycmmb concentration and of time of contact with the RNA (FIG. 4)) | hydrolysis of RNA (luciferase mRNA)
COC(=O)c1ccc(CN2CCNCCNCCNCC2)cc1.COS(=O)(=O)[O-].[Cl-].[Cl-].[Co+3] [Cocycmmb, Dichloro{methyl 4-[(1,4,7,10-tetraazacyclododec-1-yl)methyl]-benzoate}cobalt (III) methylsulfate] | 0.233 M⁻¹ s⁻¹ | 0.183 M⁻¹ s⁻¹ | 43% | significant inhibition of protein production | absence of the protein band | hydrolyze RNA
dichloro(4-[1,4,7,10-tetraazacyclotetradec-1-yl]methylbennzoic acid)cobalt(III) chloride [Cocycmba] | 0.045 M⁻¹ s⁻¹ | 0.2 M⁻¹ s⁻¹ | 25% | – | – | –
